Patent US10662218B2, “Analogs of celastrol” (ERX Pharmaceuticals, Inc., priority 2015, dated 2020)
Converted amounts (≈) assume the structure as drawn. “And” between values parts separate entries of the source, which are not always exact repeats. Equal entries are not always repeated. Where two headings read alike, the source gives them in different places.

Legend:
physchem = conditions: pH 7.4, aqueous buffer, kinetic from dmso stock, PBS (pH 7.4)
Method: • Test concentration: 100 μM (1% of DMSO) • Test systems: PBS (pH 7.4) • Incubation condition: shaken (1000 rpm) for 1 h at room temperature • Sample size: Duplicates (n=2) • Bioanalytical method: LC-MS/MS

[1] = tested on: C57BL/6 Diet Induced Obese (DIO) mice; assay: Oral (P.O.) administration study in DIO mice: in vivo activity, body weights; parameters: species or system mouse; conditions: for Individual Body Weight: individual male animals; for change in vivo at 2 mg/kg: Mus musculus, po, read-out: Body weight, %-Diff
Excerpt: The purpose of this study was to assess test articles in the Diet Induced Obese (DIO) mouse.
Male C57BL/6 Diet Induced Obese (DIO) mice were received from Taconic. Animals were acclimated to housing conditions for at least 1 week prior to vehicle acclimation dosing. Animals were acclimated to oral gavage dosing with vehicle once daily for Days 11 through 14 of the predose phase.
At initiation of dosing, animals were 21 to 22 weeks old, and their body weights ranged from 29.8 to 40.1 g.
Dose formulations were administered by oral gavage once daily for 10 days at a dose volume of 2 mL/kg. Doses were based on the most recently recorded scheduled body weight.
Body weights were recorded daily on Days 11 through 14 of the predose phase. Body weights were collected for all animals daily during the dosing phase prior to dosing.
Descriptive statistics (n, mean, standard error of the mean, standard deviation) were completed. Additionally, one-way analysis of variance followed by Dunnett's post-hoc test were performed on body weight (cumulative body weight change), glucose (glucose percent change), and food consumption (cumulative food consumption). Area under the curve (for body weight, cumulative body weight change, daily body weight change, and food consumption) was computed for treatment groups. An appropriate comparison test, such as one-way analysis of variance and Dunnett's, was performed on the group means for the area under the curve computations. Any additional statistical analysis and interpretation of the results were the responsibility of the sponsor.

[2] = tested on: C57BL/6 Diet Induced Obese (DIO) mice; assay: Oral (P.O.) administration study in DIO mice: animal fate (mortality) and clinical observations; conditions: 2 mg/kg
Method: Male C57BL/6 DIO mice were assigned to 12 groups, and doses of 2 mg/kg Celastrol (ERX1000-4), ERX1006, ERX1007, ERX1037, ERX1060, ERX1077, ERX1107, ERX1149, ERX1168, ERX1177, and Pristimerin were administered to Groups 2 through 12, respectively. Animals were dosed via oral gavage once daily for 10 days at a volume of 2 mL/kg. The vehicle control article was 1% methyl cellulose (400 cps) in citric acid and phosphate buffer.
Parameters assessed included mortality, clinical observations, body weights and food consumption and blood glucose evaluations.
All animals were anesthetized via carbon dioxide, sacrificed, and discarded without further evaluation on Day 11.

[3] = DIO mice, male, 2 mg/kg, phase DSNG, Day 7
[4] = DIO mice, male, 2 mg/kg, phase DSNG, Day 8
[5] = DIO mice, male, 2 mg/kg, phase DSNG, Day 9
[6] = DIO mice, male, 2 mg/kg, phase DSNG, Day 10
[7] = DIO mice, male, 2 mg/kg, phase DSNG, Day 11
[8] = Day 1, DSNG phase, 2 mg/kg, male, N=5
[9] = Day 2, DSNG phase, 2 mg/kg, male, N=5
[10] = Day 3, DSNG phase, 2 mg/kg, male, N=5
[11] = Day 4, DSNG phase, 2 mg/kg, male, N=5
[12] = Day 5, DSNG phase, 2 mg/kg, male, N=5
[13] = Day 6, DSNG phase, 2 mg/kg, male, N=5

CC1=C(O)C(=O)C=C2C1=CC=C1[C@@]2(C)CC[C@@]2(C)[C@@H]3C[C@](C)(C(=O)N(C)C)CC[C@]3(C)CC[C@]12C [ERX1008]
solubility (physchem; Solubility (μM) Mean, Table 6-B, test concentration 100 μM (1% of DMSO), shaken (1000 rpm) 1 h at room temperature, n = 2): 0.08 µM (≈ 0.0382 µg/mL)
solubility (physchem; Solubility (μM), Table 6-D): 0.0841 µM (≈ 0.0402 µg/mL)
cumulative body weight change ([1]; 2 mg/kg oral gavage once daily for 10 days, compared with controls): statistically significant decreases

CC(=O)N(C)C[C@]1(C)CC[C@]2(C)CC[C@]3(C)C4=CC=C5C(=CC(=O)C(O)=C5C)[C@]4(C)CC[C@@]3(C)[C@@H]2C1 [ERX1149]
Individual Animal Fate: Fate Status ([2]; mouse, in vivo): Scheduled Sacrifice
Individual Body Weight ([1]; 2 mg/kg, Phase Day DSNG 1): 33.3 g and 35.8 g and 39.7 g and 31.5 g and 34.3 g
Individual Body Weight ([1]; 2 mg/kg, Phase Day DSNG 2): 32.2 g and 34.8 g and 39.9 g and 31.7 g and 34.1 g
Individual Body Weight ([1]; 2 mg/kg, Phase Day PRED 11 (pre-dose baseline)): 33.3 g and 38.3 g and 41.4 g and 33.7 g and 35.6 g
Individual Body Weight ([1]; 2 mg/kg, Phase Day PRED 12 (pre-dose baseline)): 33.3 g and 37.3 g and 41.5 g and 33.4 g and 36.3 g
Individual Body Weight ([1]; 2 mg/kg, Phase Day PRED 13 (pre-dose baseline)): 33.1 g and 36.8 g and 41.4 g and 32.3 g and 35.2 g
Individual Body Weight ([1]; 2 mg/kg, Phase Day PRED 14 (pre-dose baseline)): 33.5 g and 36.1 g and 41.0 g and 32.5 g and 36.5 g
Body weight, Mean [1, 3]: 32.8 g
Body weight, Mean [1, 4]: 33.3 g
Body weight, Mean [1, 5]: 33.1 g
Body weight, Mean [1, 6]: 33.5 g
Body weight, Mean [1, 7]: 33.6 g
Body weight, Mean [1, 8]: 34.9 g
Body weight, Mean [1, 9]: 34.5 g
Body weight, Mean [1, 10]: 34.1 g
Body weight, Mean [1, 11]: 34.0 g
Body weight, Mean [1, 12]: 33.5 g
Body weight, Mean [1, 13]: 33.1 g
change in vivo at 2 mg/kg ([1]; 24 h, Day 1, DSNG phase, 2 mg/kg, male, difference of group mean): 2%
change in vivo at 2 mg/kg ([1]; 48 h, Day 2, DSNG phase, 2 mg/kg, male, difference of group mean): 0%
change in vivo at 2 mg/kg ([1]; 72 h, Day 3, DSNG phase, 2 mg/kg, male, difference of group mean): 1%
change in vivo at 2 mg/kg ([1]; 96 h, Day 4, DSNG phase, 2 mg/kg, male, difference of group mean): 2%
change in vivo at 2 mg/kg ([1]; 120 h, Day 5, DSNG phase, 2 mg/kg, male, difference of group mean): -1%
change in vivo at 2 mg/kg ([1]; 144 h, Day 6, DSNG phase, 2 mg/kg, male, difference of group mean): -1%
change in vivo at 2 mg/kg ([1]; 168 h, DIO mice, male, 2 mg/kg, phase DSNG, Day 7, difference of group mean from vehicle group 1): -2%
change in vivo at 2 mg/kg ([1]; 192 h, DIO mice, male, 2 mg/kg, phase DSNG, Day 8, difference of group mean from vehicle group 1): -1%
change in vivo at 2 mg/kg ([1]; 216 h, DIO mice, male, 2 mg/kg, phase DSNG, Day 9, difference of group mean from vehicle group 1): 0%
change in vivo at 2 mg/kg ([1]; 240 h, DIO mice, male, 2 mg/kg, phase DSNG, Day 10, difference of group mean from vehicle group 1): 0%
change in vivo at 2 mg/kg ([1]; 264 h, DIO mice, male, 2 mg/kg, phase DSNG, Day 11, difference of group mean from vehicle group 1): -1%

COC(=O)[C@]1(C)CC[C@]2(C)CC[C@]3(C)C4=CC=C5C(=CC(=O)C(O)=C5C)[C@]4(C)CC[C@@]3(C)[C@@H]2C1 [Pristimerin, reference compound]
Individual Animal Fate: Fate Status ([2]; individual male DIO mouse, phase of fate Dosing, phase week 2, phase day 11): Scheduled Sacrifice
Body weight, Mean [1, 3]: 33.5 g
Body weight, Mean [1, 4]: 33.1 g
Body weight, Mean [1, 5]: 32.9 g
Body weight, Mean [1, 6]: 33.2 g
Body weight, Mean [1, 7]: 33.9 g
Body weight, Mean [1, 8]: 34.2 g
Body weight, Mean [1, 9]: 34.0 g
Body weight, Mean [1, 10]: 33.7 g
Body weight, Mean [1, 11]: 33.3 g
Body weight, Mean [1, 12]: 33.3 g
Body weight, Mean [1, 13]: 33.4 g
change in vivo at 2 mg/kg ([1]; 24 h): 0%
change in vivo at 2 mg/kg ([1]; 48 h): -1%
change in vivo at 2 mg/kg ([1]; 72 h): -1%
change in vivo at 2 mg/kg ([1]; 96 h): 0%
change in vivo at 2 mg/kg ([1]; 120 h): -1%
change in vivo at 2 mg/kg ([1]; 144 h): 0%
change in vivo at 2 mg/kg ([1]; 168 h): 0%
change in vivo at 2 mg/kg ([1]; 192 h): -2%
change in vivo at 2 mg/kg ([1]; 216 h): -1%
change in vivo at 2 mg/kg ([1]; 240 h): -1%
change in vivo at 2 mg/kg ([1]; 264 h): -1%
Individual Body Weight, PRED 11 ([1]; individual male DIO mouse of the 2 mg/kg group, pre-dose phase day 11 (baseline)): 42.4 g and 35.2 g and 31.7 g and 38.2 g and 33.9 g
Individual Body Weight, PRED 12 ([1]; individual male DIO mouse of the 2 mg/kg group, pre-dose phase day 12 (baseline)): 41.2 g and 34.5 g and 31.0 g and 37.5 g and 32.5 g
Individual Body Weight, PRED 13 ([1]; individual male DIO mouse of the 2 mg/kg group, pre-dose phase day 13 (baseline)): 41.3 g and 33.4 g and 31.4 g and 37.3 g and 32.9 g
Individual Body Weight, PRED 14 ([1]; individual male DIO mouse of the 2 mg/kg group, pre-dose phase day 14 (baseline)): 41.9 g and 35.0 g and 31.6 g and 37.6 g and 33.1 g
Individual Body Weight, DSNG 1 ([1]; individual male DIO mouse, 2 mg/kg, dosing phase day 1, 2 mg/kg): 40.0 g and 33.3 g and 29.8 g and 35.5 g and 32.3 g
Individual Body Weight, DSNG 2 ([1]; individual male DIO mouse, 2 mg/kg, dosing phase day 2, 2 mg/kg): 39.4 g and 33.1 g and 30.2 g and 35.4 g and 32.1 g
